From ChEMBL document CHEMBL1158892, “Cationic reduction of bastadin-4 to bastadin-5. Preparation of 5-[2h]-bastadin-5 by site-specific isotopic labeling” (J Nat Prod, 2003) come the findings set out here.

In the assay the target is Ryanodine receptor 1 (Homo sapiens) (UniProt P21817). Nature of the assay: Displacement of [3H]ryanodine from RyR1 calcium channel in sarcoplasmic reticulum assessed as calcium mobilization. In general terms: Loss of bound radioactivity is the signal in a displacement assay; it reports binding, not function.
Ryanodine receptor 1 (Homo sapiens), sequence (P21817 whole entry): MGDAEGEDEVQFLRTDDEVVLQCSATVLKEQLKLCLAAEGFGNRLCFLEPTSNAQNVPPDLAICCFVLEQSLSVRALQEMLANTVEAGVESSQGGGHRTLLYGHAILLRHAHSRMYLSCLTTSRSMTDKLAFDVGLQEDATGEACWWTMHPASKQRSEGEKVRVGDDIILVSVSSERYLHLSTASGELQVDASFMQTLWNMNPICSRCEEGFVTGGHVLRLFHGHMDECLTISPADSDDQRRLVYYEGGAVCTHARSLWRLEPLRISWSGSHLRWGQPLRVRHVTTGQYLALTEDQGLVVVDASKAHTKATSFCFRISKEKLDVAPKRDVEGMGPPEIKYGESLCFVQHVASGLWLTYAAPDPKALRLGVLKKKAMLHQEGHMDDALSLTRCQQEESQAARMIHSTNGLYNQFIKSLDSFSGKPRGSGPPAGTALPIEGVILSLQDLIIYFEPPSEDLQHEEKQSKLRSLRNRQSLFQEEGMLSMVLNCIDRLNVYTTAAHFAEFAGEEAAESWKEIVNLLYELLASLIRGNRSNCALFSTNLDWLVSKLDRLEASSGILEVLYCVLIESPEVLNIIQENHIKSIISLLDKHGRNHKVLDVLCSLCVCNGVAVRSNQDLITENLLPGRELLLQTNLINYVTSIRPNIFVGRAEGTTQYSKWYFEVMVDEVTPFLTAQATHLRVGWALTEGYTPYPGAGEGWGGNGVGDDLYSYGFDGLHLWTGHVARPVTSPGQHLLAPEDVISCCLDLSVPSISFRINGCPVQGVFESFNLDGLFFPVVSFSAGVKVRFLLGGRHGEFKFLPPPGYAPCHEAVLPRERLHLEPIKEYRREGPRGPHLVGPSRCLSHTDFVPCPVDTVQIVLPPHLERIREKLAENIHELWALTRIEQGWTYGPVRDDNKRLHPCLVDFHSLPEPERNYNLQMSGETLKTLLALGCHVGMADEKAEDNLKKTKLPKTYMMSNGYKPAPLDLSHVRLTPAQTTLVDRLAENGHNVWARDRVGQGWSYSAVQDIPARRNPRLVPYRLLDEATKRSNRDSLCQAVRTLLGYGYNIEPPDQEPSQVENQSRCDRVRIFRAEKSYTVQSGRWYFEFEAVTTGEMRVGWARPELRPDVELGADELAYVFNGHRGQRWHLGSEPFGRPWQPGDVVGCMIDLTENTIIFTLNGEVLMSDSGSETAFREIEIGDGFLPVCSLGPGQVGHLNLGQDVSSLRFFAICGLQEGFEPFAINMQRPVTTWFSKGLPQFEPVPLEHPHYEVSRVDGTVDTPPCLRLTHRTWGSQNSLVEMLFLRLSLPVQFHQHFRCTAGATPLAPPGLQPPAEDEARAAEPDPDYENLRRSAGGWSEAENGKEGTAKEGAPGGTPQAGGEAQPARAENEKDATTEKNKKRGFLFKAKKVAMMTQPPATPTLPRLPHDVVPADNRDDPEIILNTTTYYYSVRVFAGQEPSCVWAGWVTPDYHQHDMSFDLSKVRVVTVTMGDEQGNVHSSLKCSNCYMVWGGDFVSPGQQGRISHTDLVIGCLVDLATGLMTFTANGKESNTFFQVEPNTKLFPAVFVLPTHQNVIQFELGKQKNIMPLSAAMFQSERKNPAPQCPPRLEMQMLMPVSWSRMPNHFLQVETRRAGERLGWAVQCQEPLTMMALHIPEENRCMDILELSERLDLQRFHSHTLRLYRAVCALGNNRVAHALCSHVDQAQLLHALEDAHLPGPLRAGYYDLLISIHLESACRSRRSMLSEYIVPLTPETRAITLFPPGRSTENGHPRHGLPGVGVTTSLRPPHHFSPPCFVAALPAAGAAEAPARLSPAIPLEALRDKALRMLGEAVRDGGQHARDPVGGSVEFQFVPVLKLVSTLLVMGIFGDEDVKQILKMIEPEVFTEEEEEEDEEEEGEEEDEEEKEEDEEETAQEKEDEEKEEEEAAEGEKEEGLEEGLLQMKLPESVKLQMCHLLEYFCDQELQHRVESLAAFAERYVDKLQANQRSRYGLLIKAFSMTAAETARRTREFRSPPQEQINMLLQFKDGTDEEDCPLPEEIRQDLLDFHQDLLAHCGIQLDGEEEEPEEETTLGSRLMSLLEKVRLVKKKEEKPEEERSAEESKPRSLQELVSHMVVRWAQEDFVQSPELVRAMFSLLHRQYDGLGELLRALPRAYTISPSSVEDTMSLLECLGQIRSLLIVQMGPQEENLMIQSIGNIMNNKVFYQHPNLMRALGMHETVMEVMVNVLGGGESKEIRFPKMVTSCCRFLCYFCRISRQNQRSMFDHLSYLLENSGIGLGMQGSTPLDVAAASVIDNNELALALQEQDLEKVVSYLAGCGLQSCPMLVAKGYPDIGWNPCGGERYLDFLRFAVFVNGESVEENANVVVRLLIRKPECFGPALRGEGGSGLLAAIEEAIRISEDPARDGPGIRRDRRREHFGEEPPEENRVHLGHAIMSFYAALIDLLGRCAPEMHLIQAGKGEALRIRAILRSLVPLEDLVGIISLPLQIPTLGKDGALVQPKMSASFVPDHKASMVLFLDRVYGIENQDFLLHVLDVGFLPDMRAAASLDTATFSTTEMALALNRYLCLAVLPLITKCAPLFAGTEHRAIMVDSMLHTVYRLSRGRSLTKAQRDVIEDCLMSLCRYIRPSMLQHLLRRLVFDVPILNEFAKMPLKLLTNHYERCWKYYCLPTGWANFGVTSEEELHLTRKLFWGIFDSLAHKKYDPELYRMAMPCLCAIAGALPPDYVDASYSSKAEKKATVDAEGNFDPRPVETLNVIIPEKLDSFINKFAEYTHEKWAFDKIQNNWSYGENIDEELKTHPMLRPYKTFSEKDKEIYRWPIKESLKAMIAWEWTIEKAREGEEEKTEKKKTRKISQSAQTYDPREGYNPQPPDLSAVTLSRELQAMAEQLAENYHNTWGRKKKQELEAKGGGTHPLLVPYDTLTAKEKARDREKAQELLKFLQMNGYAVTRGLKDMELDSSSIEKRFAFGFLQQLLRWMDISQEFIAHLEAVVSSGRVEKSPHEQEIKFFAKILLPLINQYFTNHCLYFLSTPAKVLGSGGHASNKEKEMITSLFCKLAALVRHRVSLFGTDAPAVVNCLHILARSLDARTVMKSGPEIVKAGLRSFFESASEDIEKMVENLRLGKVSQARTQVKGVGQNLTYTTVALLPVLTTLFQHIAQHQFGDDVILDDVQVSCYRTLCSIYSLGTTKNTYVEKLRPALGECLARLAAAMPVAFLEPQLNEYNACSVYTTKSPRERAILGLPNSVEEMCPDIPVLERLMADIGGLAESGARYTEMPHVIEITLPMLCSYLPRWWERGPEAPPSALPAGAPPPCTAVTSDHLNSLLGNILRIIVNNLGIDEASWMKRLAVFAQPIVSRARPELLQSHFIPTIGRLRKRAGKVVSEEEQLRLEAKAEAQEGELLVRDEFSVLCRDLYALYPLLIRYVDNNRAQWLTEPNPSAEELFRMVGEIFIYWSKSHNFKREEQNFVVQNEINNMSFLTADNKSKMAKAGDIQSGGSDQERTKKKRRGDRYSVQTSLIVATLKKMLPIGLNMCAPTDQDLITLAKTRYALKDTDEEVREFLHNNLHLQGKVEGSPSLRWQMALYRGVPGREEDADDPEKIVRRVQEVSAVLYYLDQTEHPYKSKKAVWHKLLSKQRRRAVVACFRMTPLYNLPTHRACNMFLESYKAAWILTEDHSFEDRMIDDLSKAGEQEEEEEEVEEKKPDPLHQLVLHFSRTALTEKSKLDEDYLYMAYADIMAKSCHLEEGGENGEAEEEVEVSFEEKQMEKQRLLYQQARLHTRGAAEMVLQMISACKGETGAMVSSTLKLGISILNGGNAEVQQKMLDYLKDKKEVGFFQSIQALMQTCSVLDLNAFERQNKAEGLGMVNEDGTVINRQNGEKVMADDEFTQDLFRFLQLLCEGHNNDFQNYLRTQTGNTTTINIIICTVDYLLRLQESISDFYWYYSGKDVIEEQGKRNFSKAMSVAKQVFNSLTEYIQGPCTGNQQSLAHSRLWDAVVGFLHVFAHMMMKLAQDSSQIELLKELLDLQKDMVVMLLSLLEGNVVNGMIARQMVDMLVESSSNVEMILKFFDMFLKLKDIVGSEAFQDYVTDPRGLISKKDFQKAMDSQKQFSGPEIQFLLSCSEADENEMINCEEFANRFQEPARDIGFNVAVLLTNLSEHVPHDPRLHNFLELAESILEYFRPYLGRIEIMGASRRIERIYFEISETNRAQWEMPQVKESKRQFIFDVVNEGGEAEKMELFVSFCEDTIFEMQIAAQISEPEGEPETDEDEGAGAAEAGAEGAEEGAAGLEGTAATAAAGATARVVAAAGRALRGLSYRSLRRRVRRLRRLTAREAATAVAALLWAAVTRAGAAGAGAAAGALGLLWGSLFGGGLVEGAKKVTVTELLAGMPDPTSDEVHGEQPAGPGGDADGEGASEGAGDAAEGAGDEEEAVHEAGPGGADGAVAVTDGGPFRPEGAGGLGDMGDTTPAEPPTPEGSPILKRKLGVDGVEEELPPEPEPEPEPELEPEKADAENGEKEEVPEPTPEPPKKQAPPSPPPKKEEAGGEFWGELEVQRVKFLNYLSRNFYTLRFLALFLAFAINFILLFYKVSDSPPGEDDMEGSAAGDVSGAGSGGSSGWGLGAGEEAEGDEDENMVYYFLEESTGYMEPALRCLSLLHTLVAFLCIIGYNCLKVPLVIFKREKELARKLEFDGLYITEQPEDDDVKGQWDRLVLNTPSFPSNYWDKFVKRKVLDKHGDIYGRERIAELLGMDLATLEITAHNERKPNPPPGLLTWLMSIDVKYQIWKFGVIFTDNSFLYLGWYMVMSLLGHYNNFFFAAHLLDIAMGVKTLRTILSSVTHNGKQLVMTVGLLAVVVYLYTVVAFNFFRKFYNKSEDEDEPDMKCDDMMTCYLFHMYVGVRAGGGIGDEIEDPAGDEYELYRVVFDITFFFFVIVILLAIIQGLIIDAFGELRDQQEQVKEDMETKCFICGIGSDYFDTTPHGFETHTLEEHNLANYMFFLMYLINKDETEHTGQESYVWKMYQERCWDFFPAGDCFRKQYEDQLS

With `O=C1NCCc2cc(Br)c(O)c(c2)Oc2ccc(cc2Br)CCNC(=O)/C(=N\O)Cc2cc(Br)c(O)c(c2)Oc2c(Br)cc(cc2Br)C/C1=N/O`, the ED50 came out at 2.3 µM.
